How the values were obtained:
JH2 domain of human Tyk2 = JH2 domain of human Tyk2 (Homo sapiens (Human), UniProt P29597); test: JH2 Biochemical Assay (TR-FRET probe displacement); type: binding; conditions: TR-FRET probe displacement, JH2 domain
Tyk2 = Tyk2 (Homo sapiens (Human), UniProt P29597); test: pSTAT4 Cell Assay (MSD, NK92 cells); type: cell-based
Sequence of Tyk2 (P29597 whole entry): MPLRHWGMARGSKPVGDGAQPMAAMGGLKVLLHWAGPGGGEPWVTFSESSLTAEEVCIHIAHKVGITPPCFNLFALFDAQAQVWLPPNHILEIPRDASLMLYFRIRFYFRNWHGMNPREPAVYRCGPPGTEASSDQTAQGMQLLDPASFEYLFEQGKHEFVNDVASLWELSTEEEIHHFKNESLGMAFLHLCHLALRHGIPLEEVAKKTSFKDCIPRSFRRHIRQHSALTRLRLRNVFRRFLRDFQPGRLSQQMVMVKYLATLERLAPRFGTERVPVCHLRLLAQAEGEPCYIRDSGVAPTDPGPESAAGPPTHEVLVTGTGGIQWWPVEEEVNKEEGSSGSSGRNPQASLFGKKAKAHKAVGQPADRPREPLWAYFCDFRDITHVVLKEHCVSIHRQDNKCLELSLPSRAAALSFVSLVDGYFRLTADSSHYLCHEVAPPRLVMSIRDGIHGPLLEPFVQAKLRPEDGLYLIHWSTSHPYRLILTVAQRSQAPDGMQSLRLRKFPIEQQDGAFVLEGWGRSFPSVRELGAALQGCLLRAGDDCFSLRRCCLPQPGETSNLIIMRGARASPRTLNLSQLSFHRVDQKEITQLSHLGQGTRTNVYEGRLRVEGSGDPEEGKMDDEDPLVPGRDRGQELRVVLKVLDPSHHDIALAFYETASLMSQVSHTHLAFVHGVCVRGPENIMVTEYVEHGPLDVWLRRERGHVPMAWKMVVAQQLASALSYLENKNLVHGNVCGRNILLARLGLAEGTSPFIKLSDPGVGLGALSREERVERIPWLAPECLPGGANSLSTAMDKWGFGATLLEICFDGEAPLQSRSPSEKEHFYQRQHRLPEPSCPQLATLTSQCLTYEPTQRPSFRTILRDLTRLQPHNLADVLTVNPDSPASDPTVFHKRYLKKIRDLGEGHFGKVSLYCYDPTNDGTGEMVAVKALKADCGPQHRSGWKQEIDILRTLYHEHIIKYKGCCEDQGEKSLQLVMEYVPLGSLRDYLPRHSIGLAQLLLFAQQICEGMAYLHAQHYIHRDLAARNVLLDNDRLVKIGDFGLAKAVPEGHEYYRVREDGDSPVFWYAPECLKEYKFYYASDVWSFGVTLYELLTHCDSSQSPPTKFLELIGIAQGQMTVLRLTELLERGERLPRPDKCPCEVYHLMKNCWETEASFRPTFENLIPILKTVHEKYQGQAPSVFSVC

Sequence of JH2 domain of human Tyk2 (P29597 575-876): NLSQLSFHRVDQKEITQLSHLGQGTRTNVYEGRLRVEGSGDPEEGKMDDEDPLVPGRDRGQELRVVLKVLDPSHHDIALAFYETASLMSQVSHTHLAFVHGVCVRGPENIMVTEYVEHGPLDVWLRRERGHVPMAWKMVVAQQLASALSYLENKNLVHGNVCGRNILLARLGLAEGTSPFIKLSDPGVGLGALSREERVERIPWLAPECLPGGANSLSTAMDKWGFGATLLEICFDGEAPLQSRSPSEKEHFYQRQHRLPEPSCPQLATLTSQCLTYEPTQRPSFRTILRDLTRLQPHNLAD

| SMILES | IC50 (JH2 domain of human Tyk2) | IC50 (Tyk2) |
| --- | --- | --- |
| CNC(=O)Nc1cc(Nc2ccnc(C(C)(F)F)n2)c(-c2nc3c(s2)CN(C)CC3)cn1 [Example 795, 1-(4-((2-(1,1-difluoroethyl)pyrimidin-4-yl)amino)-5-(5-methyl-4,5,6,7-tetrahydrothiazolo[5,4-c]pyridin-2-yl)pyridin-2-yl)-3-methylurea] | ≤ 10 nM | ≤ 10 nM |
| CC(=O)Nc1cc(Nc2ccnc(C(C)(F)F)n2)c(-c2nc3c(s2)CCN(C)C3)cn1 [Example 797, N-(4-((2-(1,1-difluoroethyl)pyrimidin-4-yl)amino)-5-(5-methyl-4,5,6,7-tetrahydrothiazolo[4,5-c]pyridin-2-yl)pyridin-2-yl)acetamide] | ≤ 10 nM | ≤ 10 nM |
| CCc1cc(Nc2cc(NC(C)=O)ncc2-c2ccncn2)nc(C(C)(C)F)n1 [Example 801, N-(4-((6-ethyl-2-(2-fluoropropan-2-yl)pyrimidin-4-yl)amino)-5-(pyrimidin-4-yl)pyridin-2-yl)acetamide] | ≤ 10 nM | ≤ 10 nM |
| CC(=O)Nc1cc(Nc2cc(C)nc(C(C)(F)F)n2)c(-c2cc(C(C)(C)N(C)C)n(C)n2)cn1 [Example 802, N-(4-((2-(1,1-difluoroethyl)-6-methylpyrimidin-4-yl)amino)-5-(5-(2-(dimethylamino)propan-2-yl)-1-methyl-1H-pyrazol-3-yl)pyridin-2-yl)acetamide] | ≤ 10 nM | ≤ 10 nM |
| CC(=O)Nc1cc(Nc2cc(C)nc(C(C)(F)F)n2)c(-c2cc(CN3CCCC3)n(C)n2)cn1 [Example 803, N-(4-((2-(1,1-difluoroethyl)-6-methylpyrimidin-4-yl)amino)-5-(1-methyl-5-(pyrrolidin-1-ylmethyl)-1H-pyrazol-3-yl)pyridin-2-yl)acetamide] | ≤ 10 nM | ≤ 10 nM |
| CC(=O)Nc1cc(Nc2cc(C)nc(C(C)(F)F)n2)c(-c2cc(CN3CCN(C)CC3)n(C)n2)cn1 [Example 804, N-(4-((2-(1,1-difluoroethyl)-6-methylpyrimidin-4-yl)amino)-5-(1-methyl-5-((4-methylpiperazin-1-yl)methyl)-1H-pyrazol-3-yl)pyridin-2-yl)acetamide] | ≤ 10 nM | ≤ 10 nM |
| CC(=O)Nc1cc(Nc2cc(C)nc(C(C)(F)F)n2)c(-c2cc(CN3CCCC3)ccn2)cn1 [Example 805, N-(4′-((2-(1,1-difluoroethyl)-6-methylpyrimidin-4-yl)amino)-4-(pyrrolidin-1-ylmethyl)-[2,3′-bipyridin]-6′-yl)acetamide] | ≤ 10 nM | 10 to 100 nM |
| CC(=O)Nc1cc(Nc2cc(C)nc(C(C)(F)F)n2)c(-c2cnc(CN(C)C)cn2)cn1 [Example 807, N-(4-((2-(1,1-difluoroethyl)-6-methylpyrimidin-4-yl)amino)-5-(5-((dimethylamino)methyl)pyrazin-2-yl)pyridin-2-yl)acetamide] | ≤ 10 nM | ≤ 10 nM |
| COc1cc(Nc2ccnc(NC(C)=O)c2)nc(C(C)(F)F)n1 [Example 808, N-(4-((2-(1,1-difluoroethyl)-6-methoxypyrimidin-4-yl)amino)pyridin-2-yl)acetamide] | 10 to 100 nM | ≥ 1000 nM |
| CC(=O)Nc1cc(Nc2cc(C)nc(C(C)(F)F)n2)c(-c2cnn(C)c2)cn1 [Example 812, N-(4-((2-(1,1-difluoroethyl)-6-methylpyrimidin-4-yl)amino)-5-(1-methyl-1H-pyrazol-4-yl)pyridin-2-yl)acetamide] | 10 to 100 nM | ≥ 1000 nM |
| CC(=O)Nc1cc(Nc2cc(C)nc(C(C)(F)F)n2)c(-c2ccc3c(n2)OCC(C)(C)O3)cn1 [Example 813, N-(4-((2-(1,1-difluoroethyl)-6-methylpyrimidin-4-yl)amino)-5-(2,2-dimethyl-2,3-dihydro-[1,4]dioxino[2,3-b]pyridin-6-yl)pyridin-2-yl)acetamide] | ≤ 10 nM | ≤ 10 nM |
| CC(=O)Nc1cc(Nc2cc(C)nc(C(C)(F)F)n2)c(-c2cc(F)n(C)n2)cn1 [Example 814, N-(4-((2-(1,1-difluoroethyl)-6-methylpyrimidin-4-yl)amino)-5-(5-fluoro-1-methyl-1H-pyrazol-3-yl)pyridin-2-yl)acetamide] | ≤ 10 nM | ≤ 10 nM |

Source: patent publication US20260028365A1 (BIOGEN MA INC., priority 2022, published 2026)
